{"source": "patent EP4653008A1", "about": "“TRADITIONAL CHINESE MEDICINE COMPOSITION HAVING EFFICACY IN TREATING COLDS AND USE THEREOF” (Shijiazhuang Yiling Pharmaceutical Co., Ltd., priority 2023, dated 2024)", "key": {"[1]": {"system": "influenza A virus (H3N2)", "test": "in vitro antiviral assay (CPE, CCK-8)", "type": "cell-based", "settings": "MDCK host cells, n=4"}, "[2]": {"system": "H1HeLa", "test": "cells", "type": "cell-based", "settings": "Homo sapiens, H1-HeLa, 72 h, n=3"}, "[3]": {"system": "influenza B virus (IBV)", "test": "in vitro antiviral assay (CPE, CCK-8)", "type": "cell-based", "settings": "MDCK host cells, n=4"}, "[4]": {"system": "MDCK", "test": "in vitro cytotoxicity (CCK-8)", "type": "cell-based, canine", "settings": "Canis lupus familiaris; MDCK cells; 72 h; n=3", "protocol": "• (1) Test Grouping: The appropriate starting concentration of the pharmaceutical composition was selected for test grouping according to the references. All the pharmaceutical compositions were diluted with serum-free DMEM medium. For the cell control group, only serum-free DMEM medium was used. […] For the positive control drug group, oseltamivir acid as a positive drug was set up at concentrations of 1000, 500, 250, 125, 62.5, and 31.25 µM. […] Recombinant human interferon α2b gel as a positive drug was set up at final concentrations of 1000, 333.33, 111.11, […], 33.33, and 11.11 IU/mL. The blank control group contained only serum-free DMEM medium and no cells. Three replicate wells were set up for each concentration in each group. • (2) Cell Plating: Cells were prepared into a suspension single cells (1×10^4 cells/mL), seeded to a 96-well cell culture plate (100 µL/well), and incubated overnight in a 37°C, 5% CO2 incubator. • (3) Addition of Drug and Test: The culture medium was discarded and the cells were washed twice with 1×PBS. […] After cells were incubated in the incubator for 1-4 h, the OD450 nm value was read using a microplate reader. The inhibition rate of cells and the half maximal inhibitory concentration (IC50) of the tested drugs on cells were calculated. […]"}, "[5]": {"system": "ICR mice", "test": "ear-swelling in mice caused by xylene", "type": "in vivo", "settings": "0.50g/kg", "protocol": "Referring to the specification and literature documents, the dose of aspirin drug administered to mice was set at 0.50 g/kg, as shown in Table 25.\nA disposable syringe was used to administer the drug at a dosing volume of 10 ml/kg. Animals in the model group were administered with a corresponding volume of the solvent. The administration was carried out for 5 days.\nAfter receiving new experimental animals, they were numbered and subjected to an adaptive feeding for at least 5 days. The grouping was carried out as described previously. 0.5 h after the last administration, the animal was fixed, and the right ear was exposed. The xylene was applied to the middle area of the right ear of the mice by dropwise addition using a pipette, with each 15 µL of xylene applied to dorsal and ventral sides and spread evenly. The left ear was left untreated. After 40 min, the animal was sacrificed by cervical dislocation. Both ears were then cut along the base of the auricle. A punch (7 mm diameter) was used to obtain symmetrical ear tissues from both ears, which were weighed on a precision analytical balance. The weights were recorded, and the degree of swelling and the swelling inhibition rate were calculated. Swelling degree = weight of the right ear tissue - weight of the left ear tissue [formula] [formula]"}, "[6]": {"system": "Coxsackievirus B3 (CVB3)", "test": "viral load in gastrointestinal tissues, coxsackievirus infection model of young rats", "type": "in vivo, young SD rats", "protocol": "Each group consisted of 50 animals.\nHomogenization was carried out using a high-speed homogenizer to prepare a tissue suspension. The suspension was centrifuged at 14000 rpm for 10 min at 4°C and the resulting supernatant was collected. RNA was extracted using the RNA extraction solution, and the extracted RNA was reverse transcribed into c-DNA. The fluorescence intensity of c-DNA obtained by reverse transcription was measured by using absolute quantitative PCR, and the fluorescence intensity of c-DNA was used to reflect the load of coxsackievirus B3 in the tissues of the stomach, small intestine, and large intestine."}, "[7]": {"system": "TNF-α", "test": "TNF-α in tissues (ELISA), coxsackievirus infection model of young rats"}, "[8]": {"system": "lymphocyte (CD4^+ and CD8^+)", "test": "lymphocytes in blood (flow cytometry), coxsackievirus infection model of young rats", "settings": "120.7mg/kg; for CD4^+/CD8^+: ratio"}, "[9]": {"system": "IL-1β", "test": "IL-1β in tissues (ELISA), coxsackievirus infection model of young rats"}, "[10]": {"system": "IFN-γ", "test": "IFN-γ in tissues (ELISA), coxsackievirus infection model of young rats"}, "[11]": {"system": "Coxsackievirus B3 (CVB3)", "test": "pathological changes of gastrointestinal tract, coxsackievirus infection model of young rats", "settings": "animals with this lesion grade (n=10), 120.7 mg/kg"}, "[12]": {"system": "IL-10", "test": "IL-10 in tissues (ELISA), coxsackievirus infection model of young rats"}, "[13]": {"settings": "3 days after administration, 120.7 mg/kg"}, "[14]": {"settings": "next day after last administration, 120.7mg/kg"}, "[15]": {"settings": "next day after the last administration"}, "[16]": {"settings": "next day after last administration"}}, "note": "pEC50, pIC50: −log10 of the molar value.", "data": [{"smiles": "CCC(CC)O[C@@H]1C=C(C(=O)O)C[C@H](N)[C@H]1NC(C)=O", "note": "[Oseltamivir acid, Oseltamivir Acid]", "values": [{"measurement": "pEC50", "setting": "[1]", "value": 6.03}, {"measurement": "pIC50", "setting": "[2]", "value": 6.00}, {"measurement": "pEC50", "setting": "[3]", "value": 7.09}, {"measurement": "pIC50", "setting": "[4]", "value": "< 3.00"}]}, {"smiles": "CC(=O)Oc1ccccc1C(=O)O", "note": "[Aspirin, aspirin]", "values": [{"measurement": "Swelling degree", "setting": "[5]", "value": "5.53 ± 2.81", "unit": "mg"}, {"measurement": "Swelling inhibition rate (%)", "setting": "[5]", "value": 50.34, "unit": "%"}]}, {"smiles": "NC(=O)c1ncn([C@@H]2O[C@H](CO)[C@@H](O)[C@H]2O)n1", "note": "[Ribavirin granule, Ribavirin]", "values": [{"measurement": "viral load, Large intestine", "setting": "[6]; [13]", "value": "515.92±226.55", "unit": "Copies/mg"}, {"measurement": "viral load, Small intestine", "setting": "[6]; [13]", "value": "947.76±811.44", "unit": "Copies/mg"}, {"measurement": "viral load, Stomach", "setting": "[6]; [13]", "value": "49.19±11.47", "unit": "Copies/mg"}, {"measurement": "viral load, Large intestine", "setting": "[6]; [14]", "value": "16346.45±20084.56", "unit": "Copies/mg"}, {"measurement": "viral load, Small intestine", "setting": "[6]; [14]", "value": "308.03±198.76", "unit": "Copies/mg"}, {"measurement": "viral load, Stomach", "setting": "[6]; [14]", "value": "104.75±74.10", "unit": "Copies/mg"}, {"measurement": "TNF-α Large intestine", "setting": "[7]; D4, 120.7mg/kg", "value": "2557 ± 100", "unit": "pg/mg"}, {"measurement": "TNF-α Small intestine", "setting": "[7]; D4, 120.7mg/kg", "value": "2806 ± 158", "unit": "pg/mg"}, {"measurement": "TNF-α Large intestine", "setting": "[7]; D8, 120.7 mg/kg", "value": "2491 ± 151", "unit": "pg/mg"}, {"measurement": "TNF-α Small intestine", "setting": "[7]; D8, 120.7 mg/kg", "value": "2698 ± 145", "unit": "pg/mg"}, {"measurement": "TNF-α Stomach", "setting": "[7]; D8, 120.7 mg/kg", "value": "2731 ± 96", "unit": "pg/mg"}, {"measurement": "% lymphocyte CD4^+", "setting": "[8]; 3 days after administration", "value": "33.31±8.66", "unit": "%"}, {"measurement": "% lymphocyte CD8^+", "setting": "[8]; 3 days after administration", "value": "20.52±5.91", "unit": "%"}, {"measurement": "% lymphocyte CD4^+", "setting": "[8]; [15]", "value": "22.69±4.04", "unit": "%"}, {"measurement": "% lymphocyte CD8^+", "setting": "[8]; [15]", "value": "11.40±2.18", "unit": "%"}, {"measurement": "CD4^+/CD8^+", "setting": "[8]; 3 days after administration", "value": "1.65±0.18"}, {"measurement": "CD4^+/CD8^+", "setting": "[8]; [15]", "value": "2.03±0.37"}, {"measurement": "IL-1β Large intestine", "setting": "[9]; D4, 120.7mg/kg", "value": "317 ± 18", "unit": "pg/mg"}, {"measurement": "IL-1β Small intestine", "setting": "[9]; D4, 120.7mg/kg", "value": "318 ± 23", "unit": "pg/mg"}, {"measurement": "IL-1β Stomach", "setting": "[9]; D4, 120.7mg/kg", "value": "291 ± 20", "unit": "pg/mg"}, {"measurement": "IL-1β Large intestine", "setting": "[9]; D8, 120.7 mg/kg", "value": "320 ± 34", "unit": "pg/mg"}, {"measurement": "IL-1β Small intestine", "setting": "[9]; D8, 120.7 mg/kg", "value": "340 ± 21", "unit": "pg/mg"}, {"measurement": "IL-1β Stomach", "setting": "[9]; D8, 120.7 mg/kg", "value": "308 ± 24", "unit": "pg/mg"}, {"measurement": "IFN-γ Large intestine", "setting": "[10]; D4, 120.7mg/kg", "value": "18364 ± 1203", "unit": "pg/mg"}, {"measurement": "IFN-γ Small intestine", "setting": "[10]; D4, 120.7mg/kg", "value": "16295 ± 865", "unit": "pg/mg"}, {"measurement": "IFN-γ Stomach", "setting": "[10]; D4, 120.7mg/kg", "value": "18235 ± 816", "unit": "pg/mg"}, {"measurement": "IFN-γ Large intestine", "setting": "[10]; D8, 120.7 mg/kg", "value": "19728 ± 926", "unit": "pg/mg"}, {"measurement": "IFN-γ Small intestine", "setting": "[10]; D8, 120.7 mg/kg", "value": "17443 ± 1296", "unit": "pg/mg"}, {"measurement": "IFN-γ Stomach", "setting": "[10]; D8, 120.7 mg/kg", "value": "16481 ± 1093", "unit": "pg/mg"}, {"measurement": "Cecum and rectum +", "setting": "[11]; 3 days after administration", "value": 3}, {"measurement": "Cecum and rectum + +", "setting": "[11]; 3 days after administration", "value": 0}, {"measurement": "Cecum and rectum -", "setting": "[11]; 3 days after administration", "value": 7}, {"measurement": "Duodenum and jejunum +", "setting": "[11]; 3 days after administration", "value": 0}, {"measurement": "Duodenum and jejunum + +", "setting": "[11]; 3 days after administration", "value": 0}, {"measurement": "Ileum and colon +", "setting": "[11]; 3 days after administration", "value": 2}, {"measurement": "Ileum and colon + +", "setting": "[11]; 3 days after administration", "value": 3}, {"measurement": "Ileum and colon -", "setting": "[11]; 3 days after administration", "value": 5}, {"measurement": "Stomach +", "setting": "[11]; 3 days after administration", "value": 9}, {"measurement": "Stomach + +", "setting": "[11]; 3 days after administration", "value": 1}, {"measurement": "Stomach -", "setting": "[11]; 3 days after administration", "value": 0}, {"measurement": "Cecum and rectum +", "setting": "[11]; [16]", "value": 5}, {"measurement": "Cecum and rectum + +", "setting": "[11]; [16]", "value": 2}, {"measurement": "Cecum and rectum -", "setting": "[11]; [16]", "value": 3}, {"measurement": "Duodenum and jejunum +", "setting": "[11]; [16]", "value": 0}, {"measurement": "Duodenum and jejunum + +", "setting": "[11]; [16]", "value": 0}, {"measurement": "Ileum and colon +", "setting": "[11]; [16]", "value": 2}, {"measurement": "Ileum and colon + +", "setting": "[11]; [16]", "value": 3}, {"measurement": "Ileum and colon -", "setting": "[11]; [16]", "value": 5}, {"measurement": "Stomach +", "setting": "[11]; [16]", "value": 5}, {"measurement": "Stomach + +", "setting": "[11]; [16]", "value": 0}, {"measurement": "Stomach -", "setting": "[11]; [16]", "value": 5}, {"measurement": "IL-10 Large intestine", "setting": "[12]; D4, 120.7mg/kg", "value": "497 ± 28", "unit": "pg/mg"}, {"measurement": "IL-10 Small intestine", "setting": "[12]; D4, 120.7mg/kg", "value": "473 ± 23", "unit": "pg/mg"}, {"measurement": "IL-10 Stomach", "setting": "[12]; D4, 120.7mg/kg", "value": "509 ± 37", "unit": "pg/mg"}, {"measurement": "IL-10 Large intestine", "setting": "[12]; D8, 120.7 mg/kg", "value": "496 ± 50", "unit": "pg/mg"}]}]}
